Test results taken from patent publication US20210047324A1 (Aptinyx Inc., priority 2018, published 2021).
Several values for one entry are separate records, joined by “and”; a condition that tells them apart may be missing. Equal entries are not always repeated. Values belong to the compound of their own block, whether it stands above or below them.

Experiments:
[1] = target: T1, NMDAR2B (Homo sapiens, UniProt Q13224); assay: NMDAR agonist assay, [3H]MK-801 binding, NMDAR2B expressing HEK cell membranes; format: biochemical; design: key to NMDAR2B B: log EC50: 0=−; ≥1×10^−9 M (e.g., −8)=+; <1×10^−9 M (e.g., −10)=++; details: 50 μM glutamate; for Emax / NMDAR2B A: % maximal [3H]MK-801 binding relative to 1 mM glycine: relative to 1 mM glycine; for Emax: read-out: NMDAR2B A: % maximal [3H]MK-801 binding relative to 1 mM glycine; for EC50: read-out: NMDAR2B B: log EC50 (converted)
T1 construct: expressed in transfected cells; host or cells: HEK cells (membrane extract)
Protocol: (§1) Assays were conducted as described by Moskal et al., “GLYX-13: a monoclonal antibody-derived peptide that acts as an N-methyl-D-aspartate receptor modulator,” Neuropharmacology, 49, 1077-87, 2005. These studies were designed to determine if the test compounds act to facilitate NMDAR activation in NMDAR2A, NMDAR2B, NMDAR2C or NMDAR2D expressing HEK cell membranes as measured by increases in [^3H]MK-801 binding.
(§2) In the assay, 300 μg of NMDAR expressing HEK cell membrane extract protein was preincubated for 15 minutes at […] in the presence of saturating concentrations of glutamate (50 μM) and varying concentrations of test compound (1×10^−15M-1×10^−7M), or 1 mM glycine. Following the addition of 0.3 μCi of [3H]MK-801 (22.5 Ci/mmol), reactions were again incubated for 15 minutes at 25° C. (nonequilibrium conditions). Bound and free [3H]MK-801 were separated via rapid filtration using a Brandel apparatus.
(§3) In analyzing the data, the DPM (disintegrations per minute) of [3H]MK-801 remaining on the filter were measured for each concentration of test compound or for 1 mM glycine. The DPM values for each concentration of a ligand (N=2) were averaged. The baseline value was determined from the best fit curve of the DPM values modeled using the GraphPad program and the log(agonist) vs. response (three parameters) algorithm was then subtracted from all points in the dataset. The % maximal [^3H]MK-801 binding was then calculated relative to that of 1 mM glycine: all baseline subtracted DPM values were divided by the average value for 1 mM glycine. The EC50 and % maximal activity were then obtained from the best fit curve of the % maximal [3H]MK-801 binding data modelled using the GraphPad program and the log(agonist) vs. response (three parameters) algorithm.
(§4) The tables below summarize the results for the wild type […] NMDAR2A, NMDAR2B, NMDAR2C, and NMDAR2D, and whether the compound is not an agonist (−), is an agonist (+), or is a strong agonist (++), where column A is based on the % maximal [3H]MK-801 binding relative to 1 mM glycine (−=0; <100%=+; and >100%=++); and column B is based on log EC50 values (0=−; ≥1×10^−9 M (e.g., −8)=+; and <1×10^−9 M (e.g., −10)=++).

[2] = target: T2, NMDAR2A (Homo sapiens, UniProt Q12879); assay: NMDAR agonist assay, [3H]MK-801 binding, NMDAR2A expressing HEK cell membranes; format: biochemical; design: key to NMDAR2A B: log EC50: 0=−; ≥1×10^−9 M (e.g., −8)=+; <1×10^−9 M (e.g., −10)=++; details: 50 μM glutamate; for EC50: read-out: NMDAR2A B: log EC50 (converted); for Emax: 0.25 h, read-out: NMDAR2A A: % maximal [3H]MK-801 binding relative to 1 mM glycine; for NMDAR2A A: % maximal [3H]MK-801 binding relative to 1 mM glycine / Emax: relative to 1 mM glycine
T2 construct: expressed in transfected cells; host or cells: HEK cells (membrane extract)
Protocol: as §1, §2, §3, §4

[3] = Microsomal stability (Human); format: in vitro ADME; details: after 60 minutes
Protocol: (§5) Microsomal stability of disclosed compounds was investigated. The following table indicates the percent of compound remaining after 60 minutes.

[4] = Oral pharmacokinetics in Sprague Dawley rats (plasma, brain, CSF); format: in vivo; details: rat, 10 mg/kg; for Tmax / AUC(0-t) / bioavailability / Cmax: Sprague-Dawley, po, plasma; for Tmax / AUC(0-t) / Cmax / CSF Cmax / Brain Cmax: per os; for Tmax: read-out: Tmax; for bioavailability: per os 10 mg/kg; for Cmax: read-out: Cmax
Protocol: In another experiment, Sprague Dawley rats were dosed per os (oral gavage) using a normal saline formulation containing 10 mg/kg of the compounds identified in the table below. Plasma, brain, and CSF samples were analyzed at various time points over a 24 hour period. The table below summarizes the results of the oral pharmacokinetics, where the first three values (Tmax, Cmax and AUClast) are plasma values.

[5] = Plasma stability (Rat); format: in vitro ADME; details: after 60 minutes
Protocol: (§6) Plasma stability of disclosed compounds was investigated. The following table indicates the percent of compound remaining after 60 minutes.

[6] = IV pharmacokinetics in Sprague Dawley rats; format: in vivo; details: Sprague-Dawley, rat, in vivo, iv, 2 mg/kg, normal saline; for Cmax: read-out: Cmax; for Vd: read-out: Vss
Protocol: Sprague Dawley rats were dosed intravenously using a normal saline formulation containing 2 mg/kg of the compounds identified in the below table. The table below summarizes the results of the IV pharmacokinetics.

[7] = Plasma stability (Human); format: in vitro ADME; details: after 60 minutes
Protocol: as §6

[8] = Microsomal stability (Rat); format: in vitro ADME; details: after 60 minutes
Protocol: as §5

[9] = test system: Sprague Dawley rats; assay: Porsolt forced swim test; format: in vivo; details: 1 h post-dose, 0.1 mg/kg
Protocol: A non-clinical in vivo pharmacology study (Porsolt assay) was performed to measure antidepressant-like effects. The study allowed for the evaluation of the effects of each compound on the Porsolt forced swim test as assessed by the rats' response (reduced floating time) during a 5-minute swimming test.
Male 2-3 month old Sprague Dawley rats were used (Harlan, Indianapolis, Ind.). Rats were housed in Lucite cages with aspen wood chip bedding, maintained on a 12:12 light:dark cycle (lights on at 5 AM), and given ad libitum access to Purina lab chow (USA) and tap water throughout the study.
The Porsolt forced swim test adapted for use in rats was performed as described by Burgdorf et al., (The long-lasting antidepressant effects of rapastinel (GLYX-13) are associated with a metaplasticity process in the medial prefrontal cortex and hippocampus. Neuroscience 308:202-211, 2015). Animals were placed in a 46 cm tall×20 cm in diameter clear glass tube filled to 30 cm with tap water (23±1° C.) for 15 min on the first day (habituation) and 5 min on the subsequent test day. Animals were tested 1 h or 24 h post-dosing with the test compounds or vehicle control (0.5% sodium carboxymethyl cellulose in 0.9% sterile saline). A subset of compounds tested at 1 h post-dosing was tested again 1 wk post-dosing. Animals received a 15 min habituation session 1 day before the first 5 min test. Water was changed after every other animal. Animals were videotaped, and floating time as defined as the minimal amount of effort required to keep the animals head above water was scored offline by a blinded experimenter with high inter-rater reliability (Pearson's r >0.9).

T2 sequence (Q12879 23-1464, species assumed, other chains not shown): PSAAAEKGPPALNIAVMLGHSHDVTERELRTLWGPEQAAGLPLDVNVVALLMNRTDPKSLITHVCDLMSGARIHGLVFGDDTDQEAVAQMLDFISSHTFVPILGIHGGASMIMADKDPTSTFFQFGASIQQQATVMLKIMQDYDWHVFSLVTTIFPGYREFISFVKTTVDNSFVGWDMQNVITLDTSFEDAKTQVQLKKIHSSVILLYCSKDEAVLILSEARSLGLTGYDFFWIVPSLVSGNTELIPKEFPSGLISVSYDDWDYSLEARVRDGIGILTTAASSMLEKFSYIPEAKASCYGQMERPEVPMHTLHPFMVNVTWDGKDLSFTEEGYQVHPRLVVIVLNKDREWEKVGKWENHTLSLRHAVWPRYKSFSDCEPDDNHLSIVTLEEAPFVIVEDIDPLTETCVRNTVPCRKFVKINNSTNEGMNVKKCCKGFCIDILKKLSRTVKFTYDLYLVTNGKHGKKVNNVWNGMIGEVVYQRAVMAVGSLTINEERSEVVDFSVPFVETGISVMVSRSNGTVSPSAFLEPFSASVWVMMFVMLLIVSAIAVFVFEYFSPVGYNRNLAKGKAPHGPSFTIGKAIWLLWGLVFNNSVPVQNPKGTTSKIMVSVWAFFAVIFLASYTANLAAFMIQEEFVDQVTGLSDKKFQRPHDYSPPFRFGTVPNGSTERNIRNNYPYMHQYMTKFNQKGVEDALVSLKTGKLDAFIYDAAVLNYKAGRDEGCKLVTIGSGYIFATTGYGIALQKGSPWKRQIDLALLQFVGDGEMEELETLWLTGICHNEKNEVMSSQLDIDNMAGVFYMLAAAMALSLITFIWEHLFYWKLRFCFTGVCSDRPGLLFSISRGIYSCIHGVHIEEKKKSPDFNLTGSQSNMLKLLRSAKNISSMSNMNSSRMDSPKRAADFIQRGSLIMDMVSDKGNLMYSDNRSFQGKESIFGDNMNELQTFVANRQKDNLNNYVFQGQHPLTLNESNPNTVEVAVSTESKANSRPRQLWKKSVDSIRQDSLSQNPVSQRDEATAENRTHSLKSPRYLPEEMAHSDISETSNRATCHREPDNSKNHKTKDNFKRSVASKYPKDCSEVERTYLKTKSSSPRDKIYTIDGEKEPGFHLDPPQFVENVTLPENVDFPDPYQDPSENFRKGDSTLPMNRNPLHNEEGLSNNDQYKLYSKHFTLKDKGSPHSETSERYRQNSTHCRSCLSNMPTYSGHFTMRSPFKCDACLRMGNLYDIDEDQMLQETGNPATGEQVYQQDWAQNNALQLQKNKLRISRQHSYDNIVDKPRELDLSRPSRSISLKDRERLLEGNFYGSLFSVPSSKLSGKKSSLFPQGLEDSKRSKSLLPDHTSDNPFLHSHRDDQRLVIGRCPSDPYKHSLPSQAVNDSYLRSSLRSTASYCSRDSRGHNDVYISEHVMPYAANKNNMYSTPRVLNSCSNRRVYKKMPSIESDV
T1 sequence (Q13224 27-1484, species assumed, other chains not shown): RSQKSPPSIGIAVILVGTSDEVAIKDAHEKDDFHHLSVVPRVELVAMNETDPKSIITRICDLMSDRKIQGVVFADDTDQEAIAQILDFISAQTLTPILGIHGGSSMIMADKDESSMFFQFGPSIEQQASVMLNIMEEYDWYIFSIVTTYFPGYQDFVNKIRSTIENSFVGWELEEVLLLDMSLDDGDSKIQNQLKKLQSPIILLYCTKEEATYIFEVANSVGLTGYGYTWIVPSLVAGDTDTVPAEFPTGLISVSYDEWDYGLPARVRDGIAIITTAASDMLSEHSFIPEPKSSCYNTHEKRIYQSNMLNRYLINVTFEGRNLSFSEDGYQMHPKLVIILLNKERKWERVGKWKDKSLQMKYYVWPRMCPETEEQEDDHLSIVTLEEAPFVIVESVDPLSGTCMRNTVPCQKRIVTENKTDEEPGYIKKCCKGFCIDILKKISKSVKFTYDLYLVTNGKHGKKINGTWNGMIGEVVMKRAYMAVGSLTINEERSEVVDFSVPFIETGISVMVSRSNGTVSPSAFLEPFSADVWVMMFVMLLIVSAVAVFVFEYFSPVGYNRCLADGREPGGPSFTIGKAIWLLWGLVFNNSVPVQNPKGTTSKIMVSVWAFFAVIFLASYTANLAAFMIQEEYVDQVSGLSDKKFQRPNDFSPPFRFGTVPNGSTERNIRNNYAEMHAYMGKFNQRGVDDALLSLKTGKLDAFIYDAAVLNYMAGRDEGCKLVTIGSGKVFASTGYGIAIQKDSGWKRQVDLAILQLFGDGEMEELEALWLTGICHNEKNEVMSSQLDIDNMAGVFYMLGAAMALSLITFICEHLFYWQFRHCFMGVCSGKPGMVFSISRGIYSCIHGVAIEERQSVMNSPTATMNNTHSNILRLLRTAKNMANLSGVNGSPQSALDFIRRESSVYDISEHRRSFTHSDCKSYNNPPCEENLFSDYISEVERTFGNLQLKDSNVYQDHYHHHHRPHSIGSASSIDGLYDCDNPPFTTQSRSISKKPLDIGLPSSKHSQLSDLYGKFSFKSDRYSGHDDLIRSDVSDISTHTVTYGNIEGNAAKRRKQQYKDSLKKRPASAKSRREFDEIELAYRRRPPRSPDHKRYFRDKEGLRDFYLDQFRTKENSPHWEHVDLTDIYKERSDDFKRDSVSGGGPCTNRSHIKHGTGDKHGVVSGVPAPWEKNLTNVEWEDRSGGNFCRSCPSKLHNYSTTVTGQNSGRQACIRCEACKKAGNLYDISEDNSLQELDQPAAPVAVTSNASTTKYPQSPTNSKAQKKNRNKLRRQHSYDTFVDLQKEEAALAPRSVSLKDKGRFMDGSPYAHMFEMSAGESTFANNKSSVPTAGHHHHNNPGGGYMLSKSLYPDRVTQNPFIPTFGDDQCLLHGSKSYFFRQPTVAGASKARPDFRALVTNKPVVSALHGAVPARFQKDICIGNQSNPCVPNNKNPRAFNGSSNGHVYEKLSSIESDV

Compound: CN1CC=CCC2(CCCN2C)C1=O (stereo not drawn) [listing 1 of 2 here]
- NMDAR2B B: log EC50 [1]: −
- Emax [1]: 0%
- NMDAR2A B: log EC50 [2]: −
- NMDAR2A A: % maximal [3H]MK-801 binding relative to 1 mM glycine [2]: − (−=0)

Compound: CN1CC=CCC2(CCCN2C)C1=O (stereo not drawn) [listing 2 of 2 here]
- NMDAR2B B: log EC50 [1]: −
- NMDAR2B A: % maximal [3H]MK-801 binding relative to 1 mM glycine [1]: − (−=0)
- EC50 [2]: < 1 nM
- NMDAR2A A: % maximal [3H]MK-801 binding relative to 1 mM glycine [2]: + (<100%=+)

Compound: O=C1NCCCCC12CCCCN2 (single isomer, unassigned) [BA, 1,8-diazaspiro[5.6]dodecan-7-one]
- EC50 [1]: < 1 nM
- EC50 [2]: < 1 nM

Compound: O=C1NCCCC12CCCNC2 (single isomer, unassigned) [CD, 2,8-diazaspiro[5.5]undecan-1-one]
- EC50 [1]: < 1 nM
- Emax [1]: < 100%
- EC50 [2]: < 1 nM
- Emax [2]: < 100%

Compound: O=C1NCCCC12CCCNC2 (single isomer, unassigned) [CE, 2,8-diazaspiro[5.5]undecan-1-one]
- EC50 [1]: < 1 nM
- EC50 [2]: < 1 nM

Compound: O=C1NCCCCC12CCCNC2 (single isomer, unassigned) [CG, 2,8-diazaspiro[5.6]dodecan-7-one]
- EC50 [1]: < 1 nM
- EC50 [2]: < 1 nM

Compound: CC(C)(C)OC(=O)N1CCCCCC12CNC2=O (single isomer, unassigned) [EI-2, tert-butyl 1-oxo-2,5-diazaspiro[3.6]decane-5-carboxylate]
- EC50 [2]: < 1 nM

Compound: O=C1NCCCC12CCCN2 (stereo not drawn) [EU-1, 1,7-diazaspiro[4.5]decan-6-one]
- EC50 [1]: < 1 nM
- Emax [1]: < 100%
- NMDAR2A B: log EC50 [2]: −
- Emax [2]: 0%

Now from value to compound, other results behind:

- EC50 [1]: < 1 nM
- Emax [1]: > 100%
- Microsomal (Human): percent of compound remaining [3]: 115% and 67%
- Tmax [4]: 25.2 min
- AUC(0-t) [4]: 4430 ng·h/mL
- bioavailability [4]: 87%
- Cmax [4]: 2400 ng/mL
- CSF Cmax [4]: 744.03 ng/mL
- Brain Cmax [4]: 2578.7 ng/mL
- EC50 [2]: < 1 nM
- Emax [2]: < 100%
- Plasma (Rat): percent of compound remaining [5]: 89%
- AUC(0-t) [6]: 1020 ng·h/mL
- clearance [6]: 32.2 mL/min/kg
- half-life [6]: 40.8 min
- Cmax [6]: 1210 ng/mL
- Vd [6]: 1.78 L/kg
- Plasma (Human): percent of compound remaining [7]: 97%
Compound: CN1CCCC12CC=CCNC2=O (single isomer, unassigned) [GC-1, 1-methyl-1,7-diazaspiro[4.6]undec-9-en-6-one]

- EC50 [1]: < 1 nM
- NMDAR2B A: % maximal [3H]MK-801 binding relative to 1 mM glycine [1]: + (<100%=+)
- Microsomal (Human): percent of compound remaining [3]: 82% and 100%
- EC50 [2]: ≥ 1 nM
- NMDAR2A A: % maximal [3H]MK-801 binding relative to 1 mM glycine [2]: + (<100%=+)
- Plasma (Rat): percent of compound remaining [5]: 103%
- Plasma (Human): percent of compound remaining [7]: 98%
Compound: CN1CCCC12CC=CCNC2=O (single isomer, unassigned) [GC-2, 1-methyl-1,7-diazaspiro[4.6]undec-9-en-6-one]

- EC50 [1]: < 1 nM
- Emax [1]: < 100%
- EC50 [2]: < 1 nM
- Emax [2]: < 100%
Compound: CC(=O)N1CCCC12CC=CCNC2=O (single isomer, unassigned) [GG-1, 1-acetyl-1,7-diazaspiro[4.6]undec-9-en-6-one]

- EC50 [1]: < 1 nM
- NMDAR2B A: % maximal [3H]MK-801 binding relative to 1 mM glycine [1]: ++ (>100%=++)
- Microsomal (Human): percent of compound remaining [3]: 87%
- Tmax [4]: 25.2 min
- AUC(0-t) [4]: 11300 ng·h/mL
- bioavailability [4]: 100%
- Cmax [4]: 5300 ng/mL
- CSF Cmax [4]: 2296.73 ng/mL
- Brain Cmax [4]: 1424.03 ng/mL
- EC50 [2]: < 1 nM
- NMDAR2A A: % maximal [3H]MK-801 binding relative to 1 mM glycine [2]: + (<100%=+)
- AUC(0-t) [6]: 1990 ng·h/mL
- clearance [6]: 16.7 mL/min/kg
- half-life [6]: 25.8 min
- Cmax [6]: 1500 ng/mL
- Vd [6]: 0.75 L/kg
- Microsomal (Rat): percent of compound remaining [8]: 104%
Compound: CC(C)C(=O)N1CCCC12CC=CCNC2=O (single isomer, unassigned) [GH-2, 1-isobutyryl-1,7-diazaspiro[4.6]undec-9-en-6-one]

- EC50 [1]: < 1 nM
- Emax [1]: > 100%
- Tmax [4]: 30 min
- AUC(0-t) [4]: 718 ng·h/mL
- bioavailability [4]: 43%
- Cmax [4]: 642 ng/mL
- CSF Cmax [4]: 322.45 ng/mL
- Brain Cmax [4]: 3368.95 ng/mL
- EC50 [2]: < 1 nM
- NMDAR2A A: % maximal [3H]MK-801 binding relative to 1 mM glycine [2]: + (<100%=+)
- AUC(0-t) [6]: 335 ng·h/mL
- clearance [6]: 98.4 mL/min/kg
- half-life [6]: 32.4 min
- Cmax [6]: 854 ng/mL
- Vd [6]: 3.01 L/kg
Compound: O=C1N(Cc2ccc(F)cc2)CC=CCC12CCCN2 (single isomer, unassigned) [GK-1, 7-(4-fluorobenzyl)-1,7-diazaspiro[4.6]undec-9-en-6-one]
- % reduction in float time [9]: 24%
- Significance vs. vehicle [9]: No

- EC50 [1]: < 1 nM
- Emax [1]: < 100%
- EC50 [2]: < 1 nM
- Emax [2]: < 100%
Compound: O=C1NCC=CCC12CC(F)(F)CN2 (single isomer, unassigned) [GL-1, 3,3-difluoro-1,7-diazaspiro[4.6]undec-9-en-6-one]

- EC50 [1]: ≥ 1 nM
- EC50 [2]: < 1 nM
Compound: CN1CC=CCC2(CCCN2Cc2ccccc2)C1=O (single isomer, unassigned) [GT-2, 1-benzyl-7-methyl-1,7-diazaspiro[4.6]undec-9-en-6-one]

- EC50 [1]: < 1 nM
- NMDAR2B A: % maximal [3H]MK-801 binding relative to 1 mM glycine [1]: + (<100%=+)
- EC50 [2]: < 1 nM
- NMDAR2A A: % maximal [3H]MK-801 binding relative to 1 mM glycine [2]: + (<100%=+)
Compound: CC(C)C(=O)N1CCC2(CCCN2C(=O)C(C)C)C1=O (single isomer, unassigned) [GU-2, 1,1′-(6-oxo-1,7-diazaspiro[4.4]nonane-1,7-diyl)bis(2-methylpropan-1-one)]
